{"source": "ChEMBL document CHEMBL1154843", "about": "“Nakijiquinones J--R, sesquiterpenoid quinones with an amine residue from okinawan marine sponges” (J Nat Prod, 2010)", "key": {"[1]": {"target": "Epidermal growth factor receptor (Homo sapiens) (UniProt P00533)", "sequence (P00533 whole entry)": "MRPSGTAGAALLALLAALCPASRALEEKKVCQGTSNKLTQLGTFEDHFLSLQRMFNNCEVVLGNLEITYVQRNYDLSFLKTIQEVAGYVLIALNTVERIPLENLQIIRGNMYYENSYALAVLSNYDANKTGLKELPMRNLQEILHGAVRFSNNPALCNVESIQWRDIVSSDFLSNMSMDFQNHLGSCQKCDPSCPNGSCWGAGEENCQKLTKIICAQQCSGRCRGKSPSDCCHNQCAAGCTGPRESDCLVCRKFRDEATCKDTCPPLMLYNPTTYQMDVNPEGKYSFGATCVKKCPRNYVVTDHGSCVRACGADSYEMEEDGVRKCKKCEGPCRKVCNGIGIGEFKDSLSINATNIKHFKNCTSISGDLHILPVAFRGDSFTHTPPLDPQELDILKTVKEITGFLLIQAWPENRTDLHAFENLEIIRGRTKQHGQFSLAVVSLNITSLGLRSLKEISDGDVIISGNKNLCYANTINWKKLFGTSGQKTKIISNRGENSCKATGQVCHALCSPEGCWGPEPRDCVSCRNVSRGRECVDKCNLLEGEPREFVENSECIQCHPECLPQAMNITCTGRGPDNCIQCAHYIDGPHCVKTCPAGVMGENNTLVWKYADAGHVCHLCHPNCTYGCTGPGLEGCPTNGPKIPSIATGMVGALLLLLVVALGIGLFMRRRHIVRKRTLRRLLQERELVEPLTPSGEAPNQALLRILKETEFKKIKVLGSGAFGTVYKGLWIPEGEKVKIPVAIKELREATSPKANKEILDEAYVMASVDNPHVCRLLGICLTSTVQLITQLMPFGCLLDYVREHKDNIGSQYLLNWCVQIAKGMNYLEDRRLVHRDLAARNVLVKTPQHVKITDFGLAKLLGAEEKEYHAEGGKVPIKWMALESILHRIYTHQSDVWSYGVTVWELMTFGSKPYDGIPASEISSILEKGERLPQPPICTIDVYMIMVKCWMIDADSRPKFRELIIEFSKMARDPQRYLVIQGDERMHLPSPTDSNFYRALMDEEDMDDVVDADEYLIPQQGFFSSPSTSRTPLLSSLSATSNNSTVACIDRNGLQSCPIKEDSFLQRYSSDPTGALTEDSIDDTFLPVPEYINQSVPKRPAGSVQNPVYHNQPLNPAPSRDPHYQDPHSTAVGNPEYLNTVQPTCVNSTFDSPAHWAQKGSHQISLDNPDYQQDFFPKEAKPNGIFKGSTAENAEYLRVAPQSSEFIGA", "assay": "Inhibition of EGFR at 1 mM"}, "[2]": {"target": "Receptor tyrosine-protein kinase erbB-2 (Homo sapiens) (UniProt P04626)", "sequence (P04626 whole entry)": "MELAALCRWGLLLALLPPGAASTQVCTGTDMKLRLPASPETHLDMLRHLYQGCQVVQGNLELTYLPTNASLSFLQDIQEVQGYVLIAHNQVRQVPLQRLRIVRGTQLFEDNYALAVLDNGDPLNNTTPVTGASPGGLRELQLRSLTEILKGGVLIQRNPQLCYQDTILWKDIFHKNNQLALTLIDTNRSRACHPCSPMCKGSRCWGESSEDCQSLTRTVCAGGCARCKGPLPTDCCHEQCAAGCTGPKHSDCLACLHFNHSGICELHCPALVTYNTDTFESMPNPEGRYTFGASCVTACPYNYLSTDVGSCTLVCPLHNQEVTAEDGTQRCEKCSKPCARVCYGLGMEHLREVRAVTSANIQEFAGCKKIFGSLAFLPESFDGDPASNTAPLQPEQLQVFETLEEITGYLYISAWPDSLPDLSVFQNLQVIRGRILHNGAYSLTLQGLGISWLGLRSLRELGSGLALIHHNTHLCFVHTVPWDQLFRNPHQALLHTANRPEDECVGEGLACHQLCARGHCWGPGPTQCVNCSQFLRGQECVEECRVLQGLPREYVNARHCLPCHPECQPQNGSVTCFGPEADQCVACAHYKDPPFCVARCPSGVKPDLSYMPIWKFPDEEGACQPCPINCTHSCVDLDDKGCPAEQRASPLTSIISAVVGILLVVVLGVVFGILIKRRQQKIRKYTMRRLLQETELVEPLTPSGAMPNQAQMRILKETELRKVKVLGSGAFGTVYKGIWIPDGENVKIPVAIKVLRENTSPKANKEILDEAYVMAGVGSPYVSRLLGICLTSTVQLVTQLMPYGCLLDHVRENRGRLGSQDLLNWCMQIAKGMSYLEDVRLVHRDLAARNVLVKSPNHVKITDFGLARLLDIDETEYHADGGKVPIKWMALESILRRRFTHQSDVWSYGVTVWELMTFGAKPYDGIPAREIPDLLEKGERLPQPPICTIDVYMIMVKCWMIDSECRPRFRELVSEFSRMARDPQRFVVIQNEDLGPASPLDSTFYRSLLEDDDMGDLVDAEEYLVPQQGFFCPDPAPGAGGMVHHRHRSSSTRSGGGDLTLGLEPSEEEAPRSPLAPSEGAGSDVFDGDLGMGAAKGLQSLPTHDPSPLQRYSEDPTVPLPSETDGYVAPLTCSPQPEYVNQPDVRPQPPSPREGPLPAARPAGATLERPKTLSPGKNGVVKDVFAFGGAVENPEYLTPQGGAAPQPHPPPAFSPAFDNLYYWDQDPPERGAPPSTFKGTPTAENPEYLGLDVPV", "assay": "Inhibition of HER2 at 1 mM"}}, "note": "Calls of active or inactive are those of the source. No cut-off for these calls is given here."}
{"compound": "CC1=CCC[C@H]2[C@](C)(CC3=C(O)C(=O)C=C(NCCC(C)C)C3=O)[C@@H](C)CC[C@]12C", "values": [{"measurement": "inhibition", "setting": "[1]", "value": "inactive"}, {"measurement": "inhibition", "setting": "[2]", "value": 66, "unit": "%"}]}
{"compound": "CC1=CCC[C@H]2[C@](C)(CC3=C(O)C(=O)C=C(NCCS(=O)(=O)O)C3=O)[C@@H](C)CC[C@]12C", "values": [{"measurement": "inhibition", "setting": "[1]", "value": "> 99", "unit": "%"}, {"measurement": "inhibition", "setting": "[2]", "value": 52, "unit": "%"}]}
{"compound": "CC[C@H](C)CNC1=CC(=O)C(O)=C(C[C@]2(C)[C@@H](C)CC[C@]3(C)C(C)=CCC[C@@H]23)C1=O", "values": [{"measurement": "inhibition", "setting": "[1]", "value": "inactive"}, {"measurement": "inhibition", "setting": "[2]", "value": "inactive"}]}
{"compound": "CC[C@H](C)CNC1=CC(=O)C(O)=C(C[C@@]2(C)[C@@H]3CCCC(C)(C)C3=CC[C@@H]2C)C1=O", "values": [{"measurement": "inhibition", "setting": "[1]", "value": "inactive"}, {"measurement": "inhibition", "setting": "[2]", "value": "inactive"}]}
{"compound": "C[C@H]1CC=C2[C@@H](CCCC2(C)C)[C@]1(C)CC1=C(O)C(=O)C=C(NCCc2ccccc2)C1=O", "values": [{"measurement": "inhibition", "setting": "[1]", "value": 76, "unit": "%"}, {"measurement": "inhibition", "setting": "[2]", "value": "inactive"}]}
{"compound": "CC(C)CCNC1=CC(=O)C(O)=C(C[C@@]2(C)[C@@H]3CCCC(C)(C)C3=CC[C@@H]2C)C1=O", "values": [{"measurement": "inhibition", "setting": "[1]", "value": "inactive"}, {"measurement": "inhibition", "setting": "[2]", "value": "inactive"}]}
{"compound": "CC1=CCC[C@H]2[C@](C)(CC3=C(O)C(=O)C=C(NCC(C)C)C3=O)[C@@H](C)CC[C@]12C", "values": [{"measurement": "inhibition", "setting": "[1]", "value": "inactive"}, {"measurement": "inhibition", "setting": "[2]", "value": 59, "unit": "%"}]}
{"compound": "C=C1CCC[C@H]2[C@](C)(CC3=C(O)C(=O)C=C(NC[C@@H](C)CC)C3=O)[C@@H](C)CC[C@]12C", "values": [{"measurement": "inhibition", "setting": "[1]", "value": "inactive"}, {"measurement": "inhibition", "setting": "[2]", "value": "inactive"}]}
{"compound": "CC1=CCC[C@H]2[C@](C)(CC3=C(O)C(=O)C=C(NCCc4ccccc4)C3=O)[C@@H](C)CC[C@]12C", "values": [{"measurement": "inhibition", "setting": "[1]", "value": "inactive"}, {"measurement": "inhibition", "setting": "[2]", "value": "inactive"}]}
